The test is described as follows: Body fluid removability of DF using dialysis tube (Experiment 2). The following applies: similar experiment, compared with the CNN results; data omitted. The procedure: Experiments, examining the effects of a cyclic tetrasaccharide on the body fluid removability of DF, were carried out using dialysis tube as follows:
According to the compositions shown in Table 2, DFs comprising glucose or CNN are prepared, respectively. Into a dialysis tube (Molecular weight cut off: 15,000 daltons; diameter: 16 mm; length: 70 mm), 1.5 milliliters each of the DF was poured and sealed using a closer, and then put into one liter of a dialyzing solution, prepared by admixed sodium chloride and dextran (Molecular weight: 60,000 to 90,000 daltons; commercialized by Wako Pure Chemical Industries Ltd., Osaka, Japan) with purified water to give concentrations of 9 g/L and 6 g/L, respectively, for dialysis. The fluid volumes in the dialysis tube at one to 14 hours after the start of dialysis were examined by measuring the weight of the tube. In the experiment, three dialysis tubes were used for a kind of DF. The changes of fluid volumes in the dialysis tubes were measured by calculating the average of the results of three tubes expressed as relative values using each fluid volume at the start of dialysis as 100.

Take `OC[C@H]1O[C@@H]2OC[C@H]3O[C@H](O[C@H]4[C@H](O)[C@@H](O)[C@@H](OC[C@H]5O[C@H](O[C@H]1[C@H](O)[C@H]2O)[C@H](O)[C@@H](O)[C@@H]5O)O[C@@H]4CO)[C@H](O)[C@@H](O)[C@@H]3O` [CMM, cyclomaltosylmaltose]: the “Fluid volume increase in dialysis tube with CMM used instead of CNN in Table 2” value is reported as “almost the same results”.
